Laboratory results from ChEMBL document CHEMBL3885881, “DrugMatrix”.

Species on record: Rattus norvegicus
Experiment: DrugMatrix - Regimen: Daily Repeat
Type: toxicity, organism-based, Sprague-Dawley
Set-up: regimen Daily Repeat, gender Male, age 6-8 weeks
Conditions: in vivo, po, route oral GAVAGE, […]; for ABSOLUTE BASOPHIL / ABSOLUTE EOSINOPHIL / ABSOLUTE LYMPHOCYTE / ABSOLUTE MONOCYTE / ABSOLUTE SEGMENTED NEUTROPHIL / BASOPHIL / EOSINOPHIL / ERYTHROCYTE COUNT / HEMATOCRIT / HEMOGLOBIN / LEUKOCYTE COUNT / LYMPHOCYTE / MEAN CORPUSCULAR HEMOGLOBIN / MEAN CORPUSCULAR HEMOGLOBIN CONCENTRATION / MEAN CORPUSCULAR VOLUME / MONOCYTE / NEUTROPHIL / NUCLEATED RED BLOOD CELLS / PLATELET COUNT: tissue Blood; for ALANINE AMINOTRANSFERASE / ALBUMIN / ALKALINE PHOSPHATASE / ASPARTATE AMINOTRANSFERASE / BLOOD UREA NITROGEN / CARBON DIOXIDE / CHLORIDE / CHOLESTEROL / CREATINE PHOSPHOKINASE / CREATININE / GLUCOSE / LACTATE DEHYDROGENASE / LIPASE / PHOSPHORUS / POTASSIUM / SODIUM / TOTAL BILIRUBIN / TOTAL PROTEIN / URIC ACID: tissue Plasma
[1] = 4 mg/kg, 120 h, dose level Low, time 5 day
[2] = 63 mg/kg, 72 h, dose level High, time 3 day
[3] = 63 mg/kg, 120 h, dose level High, time 5 day

CSc1ccc2c(c1)N(CCC1CCCCN1C)c1ccccc1S2 (centres undefined) [THIORIDAZINE]
ABSOLUTE BASOPHIL [1]: 0 CELLS/uL | ABSOLUTE EOSINOPHIL [1]: 185.33 CELLS/uL | ABSOLUTE LYMPHOCYTE [1]: 12393.33 CELLS/uL | ABSOLUTE MONOCYTE [1]: 143.33 CELLS/uL | ABSOLUTE SEGMENTED NEUTROPHIL [1]: 1078 CELLS/uL | BASOPHIL [1]: 0% | EOSINOPHIL [1]: 1.33% | ERYTHROCYTE COUNT [1]: 6.21 x10E6/uL | HEMATOCRIT [1]: 39.13% | HEMOGLOBIN [1]: 14.43 G/DL | LEUKOCYTE COUNT [1]: 13.8 x10E3/uL | LYMPHOCYTE [1]: 90% | MEAN CORPUSCULAR HEMOGLOBIN [1]: 23.27 pg | MEAN CORPUSCULAR HEMOGLOBIN CONCENTRATION [1]: 36.87 G/DL | MEAN CORPUSCULAR VOLUME [1]: 63.13 fL | MONOCYTE [1]: 1% | NEUTROPHIL [1]: 7.67% | NUCLEATED RED BLOOD CELLS [1]: 0.33 /100WBC | PLATELET COUNT [1]: 1375 x10E3/uL | ALANINE AMINOTRANSFERASE [1]: 42.67 u/L | ALBUMIN [1]: 4.4 G/DL | ALKALINE PHOSPHATASE [1]: 474.67 u/L | ASPARTATE AMINOTRANSFERASE [1]: 94.67 u/L | BLOOD UREA NITROGEN [1]: 17.67 mg/dL | CARBON DIOXIDE [1]: 24.33 mmol/L | CHLORIDE [1]: 103.67 MEQ/L | CHOLESTEROL [1]: 48.67 mg/dL | CREATINE PHOSPHOKINASE [1]: 499.33 u/L | CREATININE [1]: 0.19 mg/dL | GLUCOSE [1]: 188 mg/dL | LACTATE DEHYDROGENASE [1]: 405 u/L | LIPASE [1]: 9.33 u/L | PHOSPHORUS [1]: 12.77 mg/dL | POTASSIUM [1]: 5.85 MEQ/L | SODIUM [1]: 141.6 MEQ/L | TOTAL BILIRUBIN [1]: 0.1 mg/dL | TOTAL PROTEIN [1]: 6.63 G/DL | URIC ACID [1]: 2.07 mg/dL | ABSOLUTE BASOPHIL [2]: 0 CELLS/uL | ABSOLUTE EOSINOPHIL [2]: 50 CELLS/uL | ABSOLUTE LYMPHOCYTE [2]: 8382 CELLS/uL | ABSOLUTE MONOCYTE [2]: 59.67 CELLS/uL | ABSOLUTE SEGMENTED NEUTROPHIL [2]: 575 CELLS/uL | BASOPHIL [2]: 0% | EOSINOPHIL [2]: 0.67% | ERYTHROCYTE COUNT [2]: 5.2 x10E6/uL | HEMATOCRIT [2]: 32.73% | HEMOGLOBIN [2]: 12.73 G/DL | LEUKOCYTE COUNT [2]: 9.07 x10E3/uL | LYMPHOCYTE [2]: 92.33% | MEAN CORPUSCULAR HEMOGLOBIN [2]: 24.53 pg | MEAN CORPUSCULAR HEMOGLOBIN CONCENTRATION [2]: 38.9 G/DL | MEAN CORPUSCULAR VOLUME [2]: 63.07 fL | MONOCYTE [2]: 0.67% | NEUTROPHIL [2]: 6.33% | NUCLEATED RED BLOOD CELLS [2]: 0 /100WBC | PLATELET COUNT [2]: 1257.67 x10E3/uL | ALANINE AMINOTRANSFERASE [2]: 49.33 u/L | ALBUMIN [2]: 4.2 G/DL | ALKALINE PHOSPHATASE [2]: 379.33 u/L | ASPARTATE AMINOTRANSFERASE [2]: 77.67 u/L | BLOOD UREA NITROGEN [2]: 16 mg/dL | CARBON DIOXIDE [2]: 28.67 mmol/L | CHLORIDE [2]: 104.67 MEQ/L | CHOLESTEROL [2]: 74.33 mg/dL | CREATINE PHOSPHOKINASE [2]: 301.33 u/L | CREATININE [2]: 0.2 mg/dL | GLUCOSE [2]: 164 mg/dL | LACTATE DEHYDROGENASE [2]: 99.33 u/L | LIPASE [2]: 9 u/L | PHOSPHORUS [2]: 10.9 mg/dL | POTASSIUM [2]: 5.63 MEQ/L | SODIUM [2]: 146.33 MEQ/L | TOTAL BILIRUBIN [2]: 0.17 mg/dL | TOTAL PROTEIN [2]: 6 G/DL | URIC ACID [2]: 1.13 mg/dL | ABSOLUTE BASOPHIL [3]: 0 CELLS/uL | ABSOLUTE EOSINOPHIL [3]: 0 CELLS/uL | ABSOLUTE LYMPHOCYTE [3]: 12825 CELLS/uL | ABSOLUTE MONOCYTE [3]: 117.67 CELLS/uL | ABSOLUTE SEGMENTED NEUTROPHIL [3]: 1290.67 CELLS/uL | BASOPHIL [3]: 0% | EOSINOPHIL [3]: 0% | ERYTHROCYTE COUNT [3]: 5.78 x10E6/uL | HEMATOCRIT [3]: 35.33% | HEMOGLOBIN [3]: 13.37 G/DL | LEUKOCYTE COUNT [3]: 14.23 x10E3/uL | LYMPHOCYTE [3]: 90.33% | MEAN CORPUSCULAR HEMOGLOBIN [3]: 23.13 pg | MEAN CORPUSCULAR HEMOGLOBIN CONCENTRATION [3]: 37.87 G/DL | MEAN CORPUSCULAR VOLUME [3]: 61.23 fL | MONOCYTE [3]: 1% | NEUTROPHIL [3]: 8.67% | NUCLEATED RED BLOOD CELLS [3]: 0.33 /100WBC | PLATELET COUNT [3]: 1309.67 x10E3/uL | ALANINE AMINOTRANSFERASE [3]: 52.33 u/L | ALBUMIN [3]: 4 G/DL | ALKALINE PHOSPHATASE [3]: 520 u/L | ASPARTATE AMINOTRANSFERASE [3]: 97.33 u/L | BLOOD UREA NITROGEN [3]: 13.67 mg/dL | CARBON DIOXIDE [3]: 23.33 mmol/L | CHLORIDE [3]: 106.33 MEQ/L | CHOLESTEROL [3]: 55 mg/dL | CREATINE PHOSPHOKINASE [3]: 913 u/L | CREATININE [3]: 0.19 mg/dL | GLUCOSE [3]: 175.33 mg/dL | LACTATE DEHYDROGENASE [3]: 124.33 u/L | LIPASE [3]: 8.67 u/L | PHOSPHORUS [3]: 11.6 mg/dL | POTASSIUM [3]: 5.22 MEQ/L | SODIUM [3]: 144.53 MEQ/L | TOTAL BILIRUBIN [3]: 0.17 mg/dL | TOTAL PROTEIN [3]: 5.87 G/DL | URIC ACID [3]: 1.37 mg/dL
